Data published in patent EP0195116A2, “Compound having antibacterial and antimycotic activities, preparation thereof and pharmaceutical compositions containing it” (ISTITUTO FARMACO BIOLOGICO RIPARI GERO S.r.l., priority 1985, dated 1986).
In brackets after ≈: the same amount, converted by molar mass.

Assays:
[1] = system: Staphylococcus aureus ATCC 9144; test: In vitro antibacterial activity (M.I.C.), scalar dilutions on agar plates; type: cell-based
Experimental: (§1) The method was that of scalar dilutions of the test products on agar plates, in a 1:2 dilution ratio. Bacterial suspensions grown overnight in Brain Heart Infusion DIFCO, were diluted 1/100 in new culture medium and inoculated by means of a multiinoculation device.
(§2) M.I.C. values were determined by visual observation of bacterial growth, after 18 hours incubation, at 37°C.

Escherichia coli OMI 17 = test: as above; type: cell-based; details: 18 hours incubation at 37°C
Experimental: as §1, §2

Streptococcus pyogenes C = test: as above; type: cell-based
Experimental: as §1, §2

[2] = system: Pseudomonas aeruginosa OMI 1; test: as above; type: cell-based; details: 18 hours incubation at 37°C
Experimental: as §1, §2

Staphylococcus aureus 38 = test: as above; type: cell-based
Experimental: as §1, §2

[3] = system: Streptococcus faecalis OMI 2; test: as above; type: cell-based; details: 18 hours incubation at 37°C
Experimental: as §1, §2

Proteus vulgaris OMI 4 = test: as above; type: cell-based; details: 18 hours incubation at 37°C
Experimental: as §1, §2

Escherichia coli OMI 16 = test: as above; type: cell-based; details: 18 hours incubation at 37°C
Experimental: as §1, §2

[4] = system: Streptococcus pyogenes A/1; test: as above; type: cell-based
Experimental: as §1, §2

Sarcina lutea ATCC 9341 = test: as above; type: cell-based; details: 18 hours incubation at 37°C
Experimental: as §1, §2

Staphylococcus aureus 35 = test: as above; type: cell-based
Experimental: as §1, §2

[5] = system: Streptococcus faecalis OMI 1; test: as above; type: cell-based; details: 18 hours incubation at 37°C
Experimental: as §1, §2

[6] = system: Klebsiella pneumoniae ATCC 1003; test: as above; type: cell-based
Experimental: as §1, §2

Candida albicans 1 = test: In vitro antimycotic activity (M.I.C.), scalar dilutions in liquid medium on Microtiter plates; type: cell-based
Experimental: (§3) The method is that of scalar dilutions of the test compounds on Microtiter plates, in a 1:2 dilution ratio. Suspensions (titre: 10^4) of fungal sporae and Candida cells, grown on Sabouraud, and Dextrose Agar, were collected at the moment of use in the same medium used for the test and inoculated by means of a multi inoculation Microtiter device.
(§4) M.I.C. values were determined by means of visual observation of fungal growth respectively after 24 hours (Candida albicans) and 48 and 72 hours (dermatophytes) incubation at 24°C.

Candida albicans 3 = test: as above; type: cell-based
Experimental: as §3, §4

Microsporum canis 2 = test: as above; type: cell-based; details: hospital isolate, 48 and 72 hours incubation at 24°C
Experimental: as §3, §4

Candida albicans 2 = test: as above; type: cell-based
Experimental: as §3, §4

Aspergillus fumigatus 1 = test: as above; type: cell-based
Experimental: as §3, §4

Aspergillus fumigatus 2 = test: as above; type: cell-based
Experimental: as §3, §4

Microsporum canis 1 = test: as above; type: cell-based
Experimental: as §3, §4

[7] = system: Epidermophyton floccosum 1; test: as above; type: cell-based
Experimental: as §3, §4

[8] = system: Tricophyton mentagrophites 1; test: as above; type: cell-based
Experimental: as §3, §4

[9] = Pharmacokinetics in the rat by oral administration (serum and urinary concentrations by agar-well diffusion bioassay)

In the case of “1-{[2-(2,4-dichlorophenyl)-2-(2,4-dichlorophenyl)methoxy]ethyl}-1-pivaloyloxymethyl-lH-imidazolium chloride [RG 024]”, the M.I.C. ([1]; Staphylococcus aureus ATCC 9144, Isosensitest agar, 18 hours incubation at 37°C) is reported as 0.19 µg/mL, the M.I.C. (Escherichia coli OMI 17; Isosensitest agar) is reported as 6.25 µg/mL and the M.I.C. (Streptococcus pyogenes C; Streptococcus pyogenes C, Isosensitest agar, 18 hours incubation at 37°C) is reported as 0.39 µg/mL. It also gave a M.I.C. ([2]; Isosensitest agar) of over 200 µg/mL, a M.I.C. (Staphylococcus aureus 38; Staphylococcus aureus 38, Isosensitest agar, 18 hours incubation at 37°C) of 0.19 µg/mL and a M.I.C. ([3]; Isosensitest agar) of 6.25 µg/mL. For the same compound, the M.I.C. (Proteus vulgaris OMI 4; Isosensitest agar) was 50 µg/mL, the M.I.C. (Escherichia coli OMI 16; Isosensitest agar) was 6.25 µg/mL and the M.I.C. ([4]; Streptococcus pyogenes A/1, Isosensitest agar, 18 hours incubation at 37°C) was 0.19 µg/mL. For the same compound, the M.I.C. (Sarcina lutea ATCC 9341; Isosensitest agar) was 0.19 µg/mL, the M.I.C. (Staphylococcus aureus 35; Staphylococcus aureus 35, Isosensitest agar, 18 hours incubation at 37°C) was 0.39 µg/mL and the M.I.C. ([5]; Isosensitest agar) was 6.25 µg/mL. For the same compound, the M.I.C. ([6]; Klebsiella pneumoniae ATCC 1003, Isosensitest agar, 18 hours incubation at 37°C) was 12.5 µg/mL, the M.I.C. (Candida albicans 1; Candida albicans 1, hospital isolate, liquid medium, 24 hours incubation at 24°C) was 1.56 µg/mL and the M.I.C. (Candida albicans 3; Candida albicans 3, hospital isolate, liquid medium, 24 hours incubation at 24°C) was 0.78 µg/mL. For the same compound, the M.I.C. (Microsporum canis 2) was 6.12 µg/mL, the M.I.C. (Candida albicans 2; Candida albicans 2, hospital isolate, liquid medium, 24 hours incubation at 24°C) was 0.39 µg/mL and the M.I.C. (Aspergillus fumigatus 1; Aspergillus fumigatus 1, hospital isolate, liquid medium, incubation at 24°C) was 6.25 µg/mL. It also gave a M.I.C. (Aspergillus fumigatus 2; Aspergillus fumigatus 2, hospital isolate, liquid medium, incubation at 24°C) of 3.12 µg/mL, a M.I.C. (Microsporum canis 1; Microsporum canis 1, hospital isolate, liquid medium, 48 and 72 hours incubation at 24°C) of 12.5 µg/mL and a M.I.C. ([7]; Epidermophyton floccosum 1, hospital isolate, liquid medium, 48 and 72 hours incubation at 24°C) of 1.56 µg/mL. For the same compound, the M.I.C. ([8]; Tricophyton mentagrophites 1, hospital isolate, liquid medium, 48 and 72 hours incubation at 24°C) was 0.78 µg/mL.
For Clc1ccc(COC(Cn2ccnc2)c2ccc(Cl)cc2Cl)c(Cl)c1 (stereo not drawn) [miconazole], the “presence / detectability of the compound over time” value [9] was “may not be detected in significant amounts after the 6 ^th hour”, the MIC ([1]; Staphylococcus aureus, ATCC9144, 18 h) was 0.39 mg/L (≈ 0.937 µM) and the MIC (Escherichia coli OMI 17; OMI17, Isosensitest agar) was 12.5 mg/L (≈ 30 µM). The MIC (Streptococcus pyogenes C; Streptococcus pyogenes, 18 h) was 0.39 mg/L (≈ 0.937 µM), the MIC ([2]; OMI1, Isosensitest agar) was over 200 mg/L and the MIC (Staphylococcus aureus 38; Staphylococcus aureus, 38, 18 h) was 0.39 mg/L (≈ 0.937 µM). The MIC ([3]; Enterococcus faecalis, OMI2, Isosensitest agar) was 6.25 mg/L (≈ 15 µM), the MIC (Proteus vulgaris OMI 4; OMI4, Isosensitest agar) was 100 mg/L (≈ 240 µM) and the MIC (Escherichia coli OMI 16; OMI16, Isosensitest agar) was 25 mg/L (≈ 60.1 µM). It also gave an MIC ([4]; Streptococcus pyogenes, 18 h) of 0.39 mg/L (≈ 0.937 µM), an MIC (Sarcina lutea ATCC 9341; Micrococcus luteus, ATCC9341, Isosensitest agar) of 0.19 mg/L (≈ 0.457 µM) and an MIC (Staphylococcus aureus 35; Staphylococcus aureus, 35, 18 h) of 6.25 mg/L (≈ 15 µM). For the same compound, the MIC ([5]; Enterococcus faecalis, OMI1, Isosensitest agar) was 12.5 mg/L (≈ 30 µM), the MIC ([6]; Klebsiella pneumoniae, ATCC1003, 18 h) was 25 mg/L (≈ 60.1 µM) and the MIC (Candida albicans 1; Candida albicans, 1, 24 h) was 3.12 mg/L (≈ 7.5 µM). It also gave an MIC (Candida albicans 3; Candida albicans, 3, 24 h) of 1.56 mg/L (≈ 3.75 µM), an MIC (Microsporum canis 2) of 6.12 mg/L (≈ 14.7 µM) and an MIC (Candida albicans 2; Candida albicans, 2, 24 h) of 1.56 mg/L (≈ 3.75 µM). For the same compound, the MIC (Aspergillus fumigatus 1; Aspergillus fumigatus, 1) was 6.25 mg/L (≈ 15 µM), the MIC (Aspergillus fumigatus 2; Aspergillus fumigatus, 2) was 6.25 mg/L (≈ 15 µM) and the MIC (Microsporum canis 1; Microsporum canis, 1) was 12.5 mg/L (≈ 30 µM). It also gave an MIC ([7]; Epidermophyton floccosum, 1) of 1.56 mg/L (≈ 3.75 µM) and an MIC [8] of 1.56 mg/L (≈ 3.75 µM).
